Data taken from US9222070B2, “Cell therapy method for the treatment of tumors” (Janssen Pharmaceuticals, Inc., priority 2001, dated 2015).

Tests used:
CD8+ T cells = assay: HLA-A2.1 tetramer staining of HER-2 peptide-specific CTLs; format: cell-based, human; conditions: donor 262, after four-week ex vivo stimulation protocol
Protocol: The cells were labeled with FITC- or PE conjugated monoclonal antibodies by incubation at 4° C. for 30 minutes in FACS buffer (1% BSA, 0.02% NaN3 in PBS), followed by a wash in the same buffer. Cells were fixed in 0.5% formaldehyde prior to data acquisition and analysis on a FACScan flow cytometer (Becton Dickinson) with its CellQuest software. Nonspecific staining was measured with the same secondary antibody used to label purified primary antibodies, or an isotype-matched control when the primary antibodies were directly labeled. Tetrameric staining was performed with HLA-A2.1 specific HIVgag tetrameric molecules (Beckman Coulter) harboring the sequence [sequence] […] PE-labeled tetrameric HLA-A2.1-peptide complexes were used in conjunction with fluorescein isothiocyanate (FITC)-labeled anti-human CD8a (BD PharMagin) monoclonal antibodies to stain epitope-specific CD8+ T cells as described in package insert. Samples were analyzed by two-color flow cytometry on a Becton Dickinson FACScan, and gated CD8+ T cells were examined for staining with tetrameric HLA-A2.1-peptide complexes.

[1] = system: breast adenocarcinoma cell line (ATCC; HTB-131) transfected with HLA-A2.1; assay: Tumor lysis by HER-2 peptide-specific CTL effectors; format: cell-based, human; conditions: cell line transfected with HLA-A2.1
HLA-A2.1 molecule = biological target: T1, HLA-A2.1 molecule (Homo sapiens, UniProt P04439, D140Y/D185E/D98H/E176V/E277Q/G131W/G231S/I119V/I121R/I166T/I218V/L300P/L318F/N151K/N90K/P208A/P217A/Q86G/Q94H/R138H/R169H/T345S); assay: Peptide binding on Drosophila cells expressing HLA-A2.1
T1 construct: expressed in transfected cells; host or cells: Drosophila melanogaster Schneider S2 cells (ATCC CRL 10974), pRmHa-3 vector, CuSO4 induction

CD8 cells = assay: Ex vivo CTL generation with peptide-loaded Drosophila cells; format: cell-based, human; conditions: for frequency of CTL generation: normal donors, summary of Table 7; for CTL activity elicited by single epitope on Drosophila cells: donor #60, peptide added alone, lysis on JY cells, vs control HBc peptide
From the text: Human CTLs from healthy subjects were immunized in vitro against tyrosinase, MART-1 and gp100 when loaded separately on Drosophila APCs and evaluated for lysis on JY cells (FIG. 4). […] Melanoma-specific CTLs from healthy subjects were induced using the full stimulation/re-stimulation protocol and tested for their ability to lyse Jurkat cells loaded with each of the of the peptides used in the stimulations (FIG. 5). […]. […] One in which the multiple peptides were loaded onto individual Drosophila cells and mixed before the primary stimulation (combo mix), or the multiple peptides were mixed and then loaded onto the Drosophila APCs (combo load).
All of the peptides were synthesized, given an identification number (PRI#) and evaluated for the ability to generate CTLs ex vivo utilizing the same method we employed for melanoma-associated, T cell peptide epitopes. CD8 cells were isolated from normal donors to determine the ability to routinely generate CTLs ex vivo with Drosophila cells loaded with known CTL peptide epitopes.
Standard ^51Cr-release assays were performed to determine CTL effector cell recognition of melanoma-associated peptide epitopes loaded onto T2 cells. […] 0.1mCi of ^51Cr was added and incubated at 37° C. in a water bath. […] The cells were pulsed with the appropriate peptide(s) at 20 μg/mL for thirty minutes. 50 μL was added to each 96-well plate each containing CD8 effector cells at 10, 2, 0.4, and 0.08×10^6/mL, which was incubated at 37° C. for six hours, spun and harvested for supernatant.
To extend the ability to raise CTLs to other tumor antigens present in a wide variety of other cancers we have selected published and novel sequences to tumor antigens common to several different tumor types.

HTB-77/A2.1 cell line = assay: 51Cr-release lysis after IFNγ pretreatment; format: cell-based, human; conditions: 500 U/ml for twenty-four hours prior to 51Cr-release assay
Protocol: (§1) The cells were treated with 500 U/ml of IFNγ (specific activity of 25 ng/ml) for twenty-four hours prior to the initiation of the ^51Cr-release assay. […] To determine the effect of this dose of IFNg on the surface expression of both HLA-A2.1 and HER-2, a FACS analysis was performed to determine the levels of these molecules after both twenty-four and forty-eight hours of induction. FIG. 18, Panels A and B depict the FACS analysis results. […] This would explain why there is an enhance killing of the HTB-77/A2.1 cells in the presence of IFNγ. An up-regulation of this particular molecule would result in more efficient processing of the HER-2 molecule, allowing better presentation of the peptides of interest

TAP-1 = assay: Microarray DNA chip analysis of mRNA levels after IFNγ induction; format: cell-based, human; conditions: HTB-77/A2.1 cells after IFNγ induction
HLA-A2.1 = assay: FACS analysis of surface expression after IFNγ induction; format: cell-based, human; conditions: HLA-A2.1 transfected HTB-77 cells, similar treatment protocol
Protocol: as §1

HER-2 = assay: as above; format: cell-based, human
Protocol: as §1

| Substance | binding to the HLA-A2.1 molecule on transfected Drosophila cells (HLA-A2.1 molecule) | frequency of CTL generation (CD8 cells) | CTL activity elicited by single epitope on Drosophila cells (CD8 cells) | also measured |
| --- | --- | --- | --- | --- |
| VMAGVGSPYV [Peptide 861] | weak to moderate binders | highest frequency of CTL generation |  | peptide-specific CTLs, tetramer-positive (CD8+ T cells): 15.1%; lysis of tumor cell line by CTLs specific for the peptide [1]: could lysis this tumor cell line |
| ELVSEFSRM [Peptide 863] | weak to moderate binders | highest frequency of CTL generation |  |  |
| CLTSTVQLV [Peptide 826] |  | highest frequency of CTL generation |  |  |
| IFNγ: interferon gamma used to pretreat tumor cell lines at 500 U/ml |  |  |  | lysis of HLA-A2.1 transfected cell line (HTB-77/A2.1 cell line): enhanced lysis; level of TAP-1 expression (mRNA); also HLA-DM and -DR, Cathepsin S and D and Caspase 5 (TAP-1): increase in the level of TAP-1 expression; HLA-A2.1 surface expression (HLA-A2.1): neither HER-2 nor HLA-A2.1 demonstrated an increase; HER-2 surface expression (HER-2; HLA-A2.1 transfected HTB-77 cells, similar treatment protocol): neither HER-2 nor HLA-A2.1 demonstrated an increase; HER-2 surface expression (HER-2; HTB-77 cells, twenty-four and forty-eight hours after induction): no enhancement |
| YMNGTMSQV [Peptide 689] |  |  | CTL activity was elicited |  |
| ITDQVPFSV [Peptide 817] |  |  | CTL activity was elicited |  |
